Paper PMC11294565, “Structural insights into strigolactone catabolism by carboxylesterases reveal a conserved conformational regulation” (Nature Communications, 2024)

What was measured:
AtCXE20 [1] = biological target: T1, AtCXE20 (Arabidopsis thaliana, UniProt Q9LVB8); assay: differential scanning fluorimetry (Sypro Orange); format: binding; settings: 10 μM protein, 500 μM rac-GR24; 20 mM HEPES, 150 mM NaCl, 1 mM TCEP
T1 construct: gene CXE20; full length (residues 1-327; cap 1-26, core 53-327), codon-optimized synthetic gene, E. coli BL21(DE3), 6xHis-SUMO tag cleaved off
T1 sequence (Q9LVB8 1-327): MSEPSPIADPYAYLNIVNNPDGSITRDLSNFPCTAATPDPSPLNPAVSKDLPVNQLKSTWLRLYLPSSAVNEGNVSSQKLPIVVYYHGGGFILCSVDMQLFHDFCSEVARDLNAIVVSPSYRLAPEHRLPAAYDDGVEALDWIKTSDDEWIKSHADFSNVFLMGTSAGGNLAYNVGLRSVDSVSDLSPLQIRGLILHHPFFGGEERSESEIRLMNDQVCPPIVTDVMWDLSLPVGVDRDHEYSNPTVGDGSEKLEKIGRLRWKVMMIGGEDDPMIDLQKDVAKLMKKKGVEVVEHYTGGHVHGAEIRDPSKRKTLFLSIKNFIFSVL

AtCXE15 [2] = biological target: T2, AtCXE15 (Arabidopsis thaliana, UniProt Q9FG13); assay: X-ray crystal structure (soak), […] Å; format: binding; settings: covalent; D-ring of GR24 linked to S169; 1 mM rac-GR24 soak
T2 construct: gene CXE15; full length (residues 1-329; NTH cap 1-21, core 32-329), E. coli BL21(DE3), 6xHis-SUMO tag cleaved off
T2 sequence (Q9FG13 whole entry, the tested form may be a part): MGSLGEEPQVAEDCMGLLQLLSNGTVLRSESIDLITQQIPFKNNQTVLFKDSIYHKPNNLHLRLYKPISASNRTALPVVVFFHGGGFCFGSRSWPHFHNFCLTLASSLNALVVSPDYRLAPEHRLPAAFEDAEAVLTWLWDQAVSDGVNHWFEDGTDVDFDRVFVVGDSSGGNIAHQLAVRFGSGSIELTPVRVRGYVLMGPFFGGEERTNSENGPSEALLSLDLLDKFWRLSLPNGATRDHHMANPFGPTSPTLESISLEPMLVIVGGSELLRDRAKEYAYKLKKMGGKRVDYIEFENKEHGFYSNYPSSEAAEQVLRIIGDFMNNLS

AtCXE15 [3] = biological target: T2, AtCXE15; assay: differential scanning fluorimetry (Sypro Orange); format: binding; settings: 10 μM protein, 500 μM rac-GR24; 20 mM HEPES, 150 mM NaCl, 1 mM TCEP
CXE15^CXE20-NTα/β = system: T3, CXE15^CXE20-NTα/β; assay: fluorescence hydrolysis assay, Michaelis-Menten fit; format: biochemical, Arabidopsis thaliana; settings: 50 mM MES pH 6.0, 250 mM NaCl, 1 mM DTT; 5 μM enzyme
T3 construct: CXE15 core with its NTH replaced by the NT-α/β of CXE20 (one polypeptide)

AtCXE20 [4] = biological target: T1, AtCXE20; assay: as above; format: biochemical; settings: 50 mM MES pH 6.0, 250 mM NaCl, 1 mM DTT; 1 μM enzyme
AtCXE15 [5] = biological target: T2, AtCXE15; assay: as above; format: biochemical; settings: 50 mM MES pH 6.0, 250 mM NaCl, 1 mM DTT; 1 μM enzyme
CXE20^CXE15-NTH = system: T4, CXE20^CXE15-NTH; assay: as above; format: biochemical, Arabidopsis thaliana; settings: 50 mM MES pH 6.0, 250 mM NaCl, 1 mM DTT; 2 μM enzyme
T4 construct: CXE20 core with its NT-α/β replaced by the NTH of CXE15 (one polypeptide)

CXE15^ΔNTH = CXE15^ΔNTH (Arabidopsis thaliana, UniProt Q9FG13); assay: as above; format: biochemical; settings: 50 mM MES pH 6.0, 250 mM NaCl, 1 mM DTT; 2 μM enzyme; no NTH peptide added
Chain of CXE15^ΔNTH (Q9FG13 46-329, stated change not applied): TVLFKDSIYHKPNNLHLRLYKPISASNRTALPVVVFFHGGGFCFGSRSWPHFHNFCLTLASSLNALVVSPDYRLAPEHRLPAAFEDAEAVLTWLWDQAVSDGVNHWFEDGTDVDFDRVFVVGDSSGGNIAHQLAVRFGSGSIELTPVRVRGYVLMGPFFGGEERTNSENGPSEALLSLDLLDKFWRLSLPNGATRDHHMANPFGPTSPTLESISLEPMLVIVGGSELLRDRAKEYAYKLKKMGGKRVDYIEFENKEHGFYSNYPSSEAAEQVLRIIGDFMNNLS

Row | ΔTm (AtCXE20 [1]) [°C] | ΔTm (AtCXE15 [3]) | Km (CXE15^CXE20-NTα/β) [µM] | Km (AtCXE20 [4]) [µM] | Km (AtCXE15 [5]) [µM] | Km (CXE20^CXE15-NTH) [µM] | Km (CXE15^ΔNTH) [µM] | Compound | X-ray crystal structure (soak), 2.3 Å (AtCXE15 [2])
1 | −5.0 | +1.0 °C | – | – | – | – | – | CC1=CC(OC=C2C(=O)OC3c4ccccc4CC23)OC1=O (racemic) [rac-GR24] | hydrolyzed lactone D-ring of rac-GR24 covalently linked to S169 of the catalytic triad
2 | – | – | 19.6 ± 2.5 | 8.6 ± 2.3 | 21 ± 4.7 | 7.5 ± 1.1 | 62 ± 12.6 | CCOC(=O)c1ccccc1-c1c2ccc(=O)cc-2oc2cc(OC3C=C(C)C(=O)O3)ccc12 (centres unmarked) [Yoshimulactone Green] | –
